Data reported in patent US9155699B2, “Pulmonary delivery for levodopa” (Civitas Therapeutics, Inc., priority 2002, dated 2015).

Tests used:
in vivo = conditions: plasma
[1] = 120 minutes after administration

concentration at 2 min (in vivo; inhaled): 5000 ng/mL | concentration at 2 min (in vivo; po): 1000 ng/mL | plasma level, methods of the invention compared to oral administration [1]: twice as high
SMILES: N[C@@H](Cc1ccc(O)c(O)c1)C(=O)O [L-Dopa, Levodopa]
